Structures can show the parent of a compound that is named as a salt.
Each compound was assayed against YKL-40 (YKL-40-histag, chitin binding site) (Homo sapiens (Human), UniProt P36222) (assay: YKL-40:4 assay, competitive chitin binding site AlphaScreen). Conditions: not given.
YKL-40 (YKL-40-histag, chitin binding site), sequence (P36222 22-383): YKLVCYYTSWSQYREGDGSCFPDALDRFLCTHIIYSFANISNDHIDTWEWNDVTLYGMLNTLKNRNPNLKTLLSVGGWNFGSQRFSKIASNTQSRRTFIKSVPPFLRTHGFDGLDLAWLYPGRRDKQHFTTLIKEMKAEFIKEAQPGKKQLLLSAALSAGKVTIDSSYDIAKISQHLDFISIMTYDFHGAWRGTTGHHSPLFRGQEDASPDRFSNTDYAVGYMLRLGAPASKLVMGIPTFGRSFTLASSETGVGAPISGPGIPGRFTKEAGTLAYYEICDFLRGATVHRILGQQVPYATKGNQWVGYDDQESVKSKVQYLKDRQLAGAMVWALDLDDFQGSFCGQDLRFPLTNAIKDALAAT

SMILES | IC50 [µM]
CC(C)C[C@H]1CN(C2CCN(c3ccccn3)CC2)[C@@H](Cc2ccc(Cl)cc2)CN1CC(=O)OC(C)(C)C [Compound 2g, tert-butyl 2-((2S,5S)-5-(4-chlorobenzyl)-2-isobutyl-4-(1-(pyridin-2-yl)piperidin-4-yl)piperazin-1-yl)acetate] | > 10
C[C@H]1CN(C2C[C@H]3CC[C@@H](C2)N3c2cc(Cl)ccn2)[C@@H](Cc2ccc(Cl)cc2)CO1 (stereo partly drawn) [Compound 58, (2S,5S)-5-(4-chlorobenzyl)-4-((1R,5S)-8-(4-chloropyridin-2-yl)-8-azabicyclo[3.2.1]octan-3-yl)-2-methylmorpholine 2,2,2-trifluoroacetate] | > 10
C[C@H]1CN(C2CCN(c3ccnc(N)n3)CC2)[C@@H](Cc2ccc(Cl)cc2)CO1 [Compound 67, 4-(4-((2S,5S)-5-(4-chlorobenzyl)-2-methylmorpholino)piperidin-1-yl)pyrimidin-2-amine 2,2,2-trifluoroacetate] | > 10
Clc1ccc(C[C@H]2COc3ccccc3CN2C2CCN(c3ccccn3)CC2)cc1 [Compound 81, (S)-3-(4-chlorobenzyl)-4-(1-(pyridin-2-yl)piperidin-4-yl)-2,3,4,5-tetrahydrobenzof[1,4]oxazepine hydrochloride] | > 10
C[C@H]1CN(C2CCN(c3cc(Cl)ccc3C#N)CC2)[C@@H](Cc2ccc(Cl)cc2)CO1 [Compound 115, 4-chloro-2-(4-((2S,5S)-5-(4-chlorobenzyl)-2-methylmorpholino)piperidin-1-yl)benzonitrile 2,2,2-trifluoroacetate] | > 10
C[C@H]1CN(C2CCN(c3c(F)cccc3C#N)CC2)[C@@H](Cc2ccc(Cl)cc2)CO1 [Compound 118, 2-(4-((2S,5S)-5-(4-chlorobenzyl)-2-methylmorpholino)piperidin-1-yl)-3-fluorobenzonitrile 2,2,2-trifluoroacetate] | > 10
C[C@H]1CN(C2CCN(c3ccccc3C#N)CC2)[C@@H](Cc2ccc(Cl)cc2)CO1 [Compound 119, 2-(4-((2S,5S)-5-(4-chlorobenzyl)-2-methylmorpholino)piperidin-1-yl)benzonitrile 2,2,2-trifluoroacetate] | > 10
C[C@H]1CN(C2CCN(c3c(F)cccc3F)CC2)[C@@H](Cc2ccc(Cl)cc2)CO1 [Compound 123, (2S,5S)-5-(4-chlorobenzyl)-4-(1-(2,6-difluorophenyl)piperidin-4-yl)-2-methylmorpholine 2,2,2-trifluoroacetate] | > 10
C[C@H]1CN(C2CCN(c3cccc(F)c3)CC2)[C@@H](Cc2ccc(Cl)cc2)CO1 [Compound 127, (2S,5S)-5-(4-chlorobenzyl)-4-(1-(3-fluorophenyl)piperidin-4-yl)-2-methylmorpholine 2,2,2-trifluoroacetate] | > 10
C[C@H]1CN(C2CCN(c3nccc(C(=O)O)c3F)CC2)[C@@H](Cc2ccc(Cl)cc2)CO1 [Compound 128, 2-(4-((2S,5S)-5-(4-chlorobenzyl)-2-methylmorpholino)piperidin-1-yl)-3-fluoroisonicotinic acid 2,2,2-trifluoroacetate] | > 10
C[C@H]1CN(C2CCN(c3cc(C(N)=O)ccn3)CC2)[C@@H](Cc2ccc(Cl)cc2)CO1 [Compound 132, 2-(4-((2S,5S)-5-(4-chlorobenzyl)-2-methylmorpholino)piperidin-1-yl)isonicotinamide 2,2,2-trifluoroacetate] | > 10
O=C1NCCN(C2CCN(c3ccccn3)CC2)[C@H]1Cc1ccc(Cl)cc1 [Compound 149, (S)-3-(4-chlorobenzyl)-4-(1-(pyridin-2-yl)piperidin-4-yl)piperazin-2-one 2,2,2-trifluoroacetate] | > 10

Next, values leading:

IC50 [µM] | SMILES
> 10 | C[C@H]1CN(C2CCN(C(=O)OC(C)(C)C)CC2)[C@@H](Cc2ccc(Cl)cc2)CO1 [Compound 8d, tert-butyl 4-((2S,5S)-5-(4-chlorobenzyl)-2-methylmorpholino)piperidine-1-carboxylate]
> 10 | CN1C[C@H](Cc2ccc(Cl)cc2)N(C2CCN(c3cc(Cl)ccn3)CC2)C[C@@H]1COc1ccc2ccccc2c1 [Compound 84, (2S,5R)-2-(4-chlorobenzyl)-1-(1-(4-chloropyridin-2-yl)piperidin-4-yl)-4-methyl-5-((naphthalen-2-yloxy)methyl)piperazine 2,2,2-trifluoroacetate]
> 10 | C[C@H]1CN(C2CCN(c3ncccc3C(N)=O)CC2)[C@@H](Cc2ccc(Cl)cc2)CO1 [Compound 114, 2-(4-((2S,5S)-5-(4-chlorobenzyl)-2-methylmorpholino)piperidin-1-yl)nicotinamide 2,2,2-trifluoroacetate]
> 10 | C[C@H]1CN(C2CCN(c3nccc4ccccc34)CC2)[C@@H](Cc2ccc(Cl)cc2)CO1 [Compound 116, (2S,5S)-5-(4-chlorobenzyl)-4-(1-(isoquinolin-1-yl)piperidin-4-yl)-2-methylmorpholine 2,2,2-trifluoroacetate]
> 10 | COC(=O)c1cccnc1N1CCC(N2C[C@H](C)OC[C@@H]2Cc2ccc(Cl)cc2)CC1 [Compound 117, methyl 2-(4-((2S,5S)-5-(4-chlorobenzyl)-2-methylmorpholino)piperidin-1-yl)nicotinate 2,2,2-trifluoroacetate]
> 10 | C[C@H]1CN(C2CCN(c3ncccc3CO)CC2)[C@@H](Cc2ccc(Cl)cc2)CO1 [Compound 120, (2-(4-((2S,5S)-5-(4-chlorobenzyl)-2-methylmorpholino)piperidin-1-yl)pyridin-3-yl)methanol 2,2,2-trifluoroacetate]
> 10 | C[C@H]1CN(C2CCN(c3cc(C(=O)O)ccn3)CC2)[C@@H](Cc2ccc(Cl)cc2)CO1 [Compound 125, 2-(4-((2S,5S)-5-(4-chlorobenzyl)-2-methylmorpholino)piperidin-1-yl)isonicotinic acid 2,2,2-trifluoroacetate]
> 10 | C[C@H]1CN(C2CCN(c3ccccc3F)CC2)[C@@H](Cc2ccc(Cl)cc2)CO1 [Compound 126, (2S,5S)-5-(4-chlorobenzyl)-4-(1-(2-fluorophenyl)piperidin-4-yl)-2-methylmorpholine 2,2,2-trifluoroacetate]
> 10 | C[C@H]1CN(C2CCN(c3cc(CO)ccn3)CC2)[C@@H](Cc2ccc(Cl)cc2)CO1 [Compound 130, (2-(4-((2S,5S)-5-(4-chlorobenzyl)-2-methylmorpholino)piperidin-1-yl)pyridin-4-yl)methanol 2,2,2-trifluoroacetate]
> 10 | C[C@H]1CN(C2CCN(c3cc(C(C)(C)O)ccn3)CC2)[C@@H](Cc2ccc(Cl)cc2)CO1 [Compound 131, 2-(2-(4-((2S,5S)-5-(4-chlorobenzyl)-2-methylmorpholino)piperidin-1-yl)pyridin-4-yl)propan-2-ol 2,2,2-trifluoroacetate]

Same assay, conditions: competition with biotinylated compound 4, 20 nM; YKL-40-histag 2.5 nM; read-out: YKL-40:4, IC50/Kd (IC50 range)

SMILES | IC50 [µM]
COC(=O)c1ccnc(F)c1N1CCC(N2C[C@H](C)OC[C@@H]2Cc2ccc(Cl)cc2)CC1 [Compound 121, methyl 3-(4-((2S,5S)-5-(4-chlorobenzyl)-2-methylmorpholino)piperidin-1-yl)-2-fluoroisonicotinate] | > 10
COC(=O)c1ccnc(N2CCC(N3C[C@H](C)OC[C@@H]3Cc3ccc(Cl)cc3)CC2)c1F [Compound 122, methyl 2-(4-((2S,5S)-5-(4-chlorobenzyl)-2-methylmorpholino)piperidin-1-yl)-3-fluoroisonicotinate] | > 10
C[C@H]1CN(C2CCN(c3cc(C(F)(F)F)ncn3)CC2)[C@@H](Cc2ccc(Cl)cc2)CO1 [Compound 145, (2S,5S)-5-(4-chlorobenzyl)-2-methyl-4-(1-(6-(trifluoromethyl)pyrimidin-4-yl)piperidin-4-yl)morpholine hydrochloride] | > 10
C[C@H]1CN(C2CCN(c3cncc(C(F)(F)F)n3)CC2)[C@@H](Cc2ccc(Cl)cc2)CO1 [Compound 153, (2S,5S)-5-(4-chlorobenzyl)-2-methyl-4-(1-(6-(trifluoromethyl)pyrazin-2-yl)piperidin-4-yl)morpholine hydrochloride] | > 10
C[C@H]1CN(C2CCN(c3cnc(C(F)(F)F)cn3)CC2)[C@@H](Cc2ccc(Cl)cc2)CO1 [Compound 158, (2S,5S)-5-(4-chlorobenzyl)-2-methyl-4-(1-(5-(trifluoromethyl)pyrazin-2-yl)piperidin-4-yl)morpholine hydrochloride] | > 10

Results, then the compound that gave them:

IC50 [µM] | SMILES
> 10 | CC(C)C[C@H]1CN(C2CCN(c3ccccn3)CC2)[C@@H](Cc2ccc(Cl)cc2)CN1C(=O)OC(C)(C)C [Compound 2e, tert-butyl (2S,5S)-5-(4-chlorobenzyl)-2-isobutyl-4-(1-(pyridin-2-yl)piperidin-4-yl)piperazine-1-carboxylate]
> 10 | C[C@H]1CN(C2CCN(c3ccnc(Cl)n3)CC2)[C@@H](Cc2ccc(Cl)cc2)CO1 [Compound 66, (2S,5S)-5-(4-chlorobenzyl)-4-(1-(2-chloropyrimidin-4-yl)piperidin-4-yl)-2-methylmorpholine]
> 10 | COC(=O)c1ccnc(N2CCC(N3C[C@H](C)OC[C@@H]3Cc3ccc(Cl)cc3)CC2)c1 [Compound 124, methyl 2-(4-((2S,5S)-5-(4-chlorobenzyl)-2-methylmorpholino)piperidin-1-yl)isonicotinate]
> 10 | Cc1cccc(N2CCC(N3C[C@H](C)OC[C@@H]3Cc3ccc(Cl)cc3)CC2)n1 [Compound 135, (2S,5S)-5-(4-chlorobenzyl)-2-methyl-4-(1-(6-methylpyridin-2-yl)piperidin-4-yl)morpholine hydrochloride]
> 10 | Cc1ccc(N2CCC(N3C[C@H](C)OC[C@@H]3Cc3ccc(Cl)cc3)CC2)nc1 [Compound 136, (2S,5S)-5-(4-chlorobenzyl)-2-methyl-4-(1-(5-methylpyridin-2-yl)piperidin-4-yl)morpholine hydrochloride]
> 10 | O=C1COC[C@H](Cc2ccc(Cl)cc2)N1C1CCN(c2ccccn2)CC1 [Compound 147, (S)-5-(4-chlorobenzyl)-4-(1-(pyridin-2-yl)piperidin-4-yl)morpholin-3-one hydrochloride]
> 10 | CC(C)C1OC[C@H](Cc2ccc(Cl)cc2)N1C1CCN(c2ccccn2)CC1 (stereo partly drawn) [Compound 150, (4S)-4-(4-chlorobenzyl)-2-isopropyl-3-(1-(pyridin-2-yl)piperidin-4-yl)oxazolidine hydrochloride]
